Among the data in paper PMC4740378, “Export of malaria proteins requires co-translational processing of the PEXEL motif independent of phosphatidylinositol-3-phosphate binding” (Nature Communications, 2016) are Kd values, retold here.

For the test, the target named is T1, p40PX (GST-p40PX, aa 1-148) (Homo sapiens, UniProt Q15080).
T1 construct: gene NCF4; PX domain, residues 1-148, N-terminal GST fusion (pGEX; glutathione-purified, detected with anti-GST), E. coli
T1 sequence (Q15080 1-148): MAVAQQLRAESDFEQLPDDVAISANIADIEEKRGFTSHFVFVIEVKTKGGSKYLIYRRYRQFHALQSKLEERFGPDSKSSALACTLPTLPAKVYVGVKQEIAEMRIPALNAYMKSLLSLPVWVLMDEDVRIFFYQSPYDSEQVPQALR
Nature of the test: SPR, Biacore […], L1 chip with liposomes. The format is binding. Particulars: PC:PE:PI(3)P 75:20:5 liposomes, PC/PE control subtracted; 150 mM NaCl, 50 mM HEPES pH 7.5, 25 °C; own-purified protein.

What is called Kd is a measure of binding affinity in units of concentration. Read a low Kd as tighter binding. With `CCCCCCCCCCCCCCCC(=O)OC[C@H](COP(=O)(O)O[C@@H]1[C@H](O)[C@H](OP(=O)(O)O)[C@@H](O)[C@H](O)[C@H]1O)OC(=O)CCCCCCCCCCCCCCC` [PI(3)P-diC16, D-myo-phosphatidylinositol 3-phosphate di-C16], the affinity, expressed as Kd, was 195 nM.
